Laboratory results: US20110139152A1, “ANTIBIOTIC MICROPARTICLES FOR INHALATION” (Chiesi Farmaceutici S.p.A., priority 2009, published 2011)

Experiment: Aerosol performance by laser diffraction (Spraytec with inhalation cell, Monodose inhaler)
Assay type: physicochemical
Settings: mean
Method: The aerosol performance of the microparticles of the present invention were evaluated by laser diffraction (Spraytec, Malvern Instruments, Worcestershire, UK) equipped with an inhalation cell attachment. Approximate 30 mg (or 15 mg in later tests) of each powder was loaded into size 3 HPMC capsules (Capsugel, Peapack, N.J., USA). Before the aerosolization, a stainless steel pin punched each end of the capsule allowing powders to be released from the capsule by providing two holes with diameter about 1 mm. Each capsule was aerosolized using a Monodose inhaler device (Miat S.p.A., Milan, Italy) at flow rate of 60 and 90 L/min. All measurements were made on four replicates at room temperature (20° C., 50% RH). Each measurement was performed over 4 s.
The device retention was calculated as a percentage of powder left both in the capsules and in the inhalers to the total load. The fine particle fraction (FPF) was defined as the amount of drug particle smaller than 5.4 μm as a percentage of the powder emitted from inhaler device.
It should be noted that all powders were tested after removing large agglomerates by gently passing the powders through a 250 μm sieve.
To further improve both the emitted dose and FPF of the mechano-fused microparticles with lower contents of MgSt, e.g. between 0.5% and 1%, loose agglomeration was applied by vibrating powders between two sieves of 180 and 710 μm.
Prior to this sieving process, powders were tumbled to encourage formation of loose agglomerates.

[1] = 90 L/min, loosely agglomerated drug powders (tumbled, vibrated between sieves of 180 and 710 μm) versus unsieved

## NC[C@H]1O[C@H](O[C@H]2[C@H](O)[C@@H](O[C@H]3O[C@H](CO)[C@@H](O)[C@H](N)[C@H]3O)[C@H](N)C[C@@H]2N)[C@H](N)C[C@@H]1O [TMC-raw, (2S,3R,4S,5S,6R)-4-amino-2-{[(1S,2S,3R,4S,6R)-4,6-diamino-3-{[(2R,3R,5S,6R)-3-amino-6-(aminomethyl)-5-hydroxyoxan-2-yl]oxy}-2-hydroxycyclohexyl]oxy}-6-(hydroxymethyl)oxane-3,5-diol]
90 L/min air flow, Monodose inhaler, percentage of the powder emitted, powders passed through 250 μm sieve
  <5.4 μm (%) (fine particle fraction, FPF): 32.58%
90 L/min air flow, Monodose inhaler, percentage of the powder emitted, powders passed through 250 μm sieve, listed as untreated drug powder
  <5.4 μm (%) (fine particle fraction, FPF): around 30%
90 L/min air flow, Monodose inhaler, size 3 HPMC capsules, powders passed through 250 μm sieve
  Emitted dose (%): 70.77%
[1]
  <5.4 μm (%) (fine particle fraction, FPF): 32.58%
  Emitted dose (%): 70.77%
